# How the values were obtained:
# [1] = target: T1, TarH (TarGH nucleotide binding domain) (Staphylococcus aureus, UniProt Q2FJ01); assay: malachite green ATPase assay of purified TarGH (Michaelis-Menten); assay type: biochemical
# T1 construct: gene tagH; full-length TarH (residues 1–264) in TarG2H2 heterotetramer; with TarG (A0A0H2XIF1)
# [2] = target: T2, TarG (TarGH WTA transporter, transmembrane domain) (Staphylococcus aureus, UniProt A0A0H2XIF1); assay: cryo-EM structures ([…] Å with AMP-PNP; […] Å with ATPγS), MST; IC50 from malachite green ATPase assay of purified TarGH; assay type: biochemical
# T2 construct: gene tagG; full-length TarG with N-terminal His tag, co-expressed with TarH (residues 1–264) as TarG2H2 heterotetramer; with TarH (Q2FJ01)
# [3] = target: T1, TarH (TarGH nucleotide binding domain); assay: cryo-EM structure at […] Å
# T1 sequence (Q2FJ01 whole entry, the tested form may be a part): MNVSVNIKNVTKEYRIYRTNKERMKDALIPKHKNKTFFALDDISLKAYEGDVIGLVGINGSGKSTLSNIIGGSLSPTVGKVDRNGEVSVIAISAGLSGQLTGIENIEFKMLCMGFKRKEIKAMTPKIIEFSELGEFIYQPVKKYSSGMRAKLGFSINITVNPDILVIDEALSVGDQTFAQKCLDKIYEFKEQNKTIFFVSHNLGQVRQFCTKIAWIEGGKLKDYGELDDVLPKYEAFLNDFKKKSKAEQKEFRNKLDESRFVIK
# T1 sequence (A0A0H2XIF1 1-270 partner): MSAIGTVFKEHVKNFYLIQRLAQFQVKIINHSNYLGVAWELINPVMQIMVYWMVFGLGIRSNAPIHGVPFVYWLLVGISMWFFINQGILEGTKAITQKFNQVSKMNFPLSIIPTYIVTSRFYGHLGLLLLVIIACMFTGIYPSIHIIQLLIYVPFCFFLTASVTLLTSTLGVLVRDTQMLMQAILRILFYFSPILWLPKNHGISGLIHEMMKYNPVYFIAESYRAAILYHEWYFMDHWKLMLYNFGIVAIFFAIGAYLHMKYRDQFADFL
# T2 sequence (A0A0H2XIF1 1-270): as the sequence (A0A0H2XIF1 1-270 partner) above
# T2 sequence (Q2FJ01 whole entry partner, the tested form may be a part): as the sequence (Q2FJ01 whole entry, the tested form may be a part) above
smiles,measurement,setting,value
Nc1ncnc2c1ncn2[C@@H]1O[C@H](COP(=O)(O)OP(=O)(O)OP(=O)(O)O)[C@@H](O)[C@H]1O [ATP],malachite green ATPase assay of purified TarGH (Michaelis-Menten),[1],~ 70 mol Pi/min mol protein
Cc1c(CC(=O)N2CCC[C@H]2C(=O)O)c(=O)oc2c(C)c3occ(-c4ccc(Cl)cc4)c3cc12 [targocil-II],IC50,[2],6.5 ± 1.2 µM
Nc1ncnc2c1ncn2[C@@H]1O[C@H](CO[P@](=O)(O)O[P@](=O)(O)O[P@@](=O)(O)S)[C@@H](O)[C@H]1O [ATPγS],cryo-EM structure at 2.3 Å,[3],"ATPγS is well resolved at the TarH dimer interface, forming characteristic interactions with the ABC motifs"
